Earlier results in patent US10875826B2, “Process for the manufacture of SNAC (salcaprozate sodium)” (Emisphere Technologies, Inc., priority 2006, dated 2020).
Structures can show the parent of a compound that is named as a salt.

solubility in organic solvents (organic solvents): practically insoluble | solubility in water (water): freely soluble
Compound: CCCCCN(C)CCC(O)(P(=O)(O)O)P(=O)(O)O [Ibandronate sodium, 3-(N-methyl-N-pentyl)-amino-1-hydroxypropane-1,1-diphosphonic acid, monosodium salt, monohydrate]
